The results in this text go back to patent publication US4656166A, “Antibiotic compounds derived from cephalosporins, process for their production and pharmaceutical compositions” (Sanofi, priority 1983, dated 1987).

The subject of experiment [1] is Escherichia coli SOL 90. Description: MIC, in vitro dilution method, Escherichia coli SOL 90 (Table III). It is filed as cell-based. The note with it: SOL90; Escherichia coli SOL 90; dilution method; read-out: MIC. The procedure, abridged: (§1)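 Dilution-method MIC, in vitro, μg/ml.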
Another experiment deals with Citrobacter RL 49. Description: MIC, in vitro dilution method, Citrobacter RL 49 (Table III). Format: cell-based. The note with it: RL49; Citrobacter RL 49; dilution method; read-out: MIC. In a few lines:
as §1

Experiment [2] concerns Proteus vulgaris RL 99 bis. Put plainly: MIC, in vitro dilution method, Proteus vulgaris RL 99 bis (Table III). Format: cell-based. Particulars: RL99BIS; Proteus vulgaris RL 99 bis; dilution method; read-out: MIC. In a few lines:
as §1

The test system of the next experiment is Serratia RL 72. Description: MIC, in vitro dilution method, Serratia RL 72 (Table III). It is filed as cell-based. The note with it: RL72. The procedure, abridged: as §1
Experiment [3] concerns Klebsiella RO 30. Description: MIC, in vitro dilution method, Klebsiella RO 30 (Table III). Format: cell-based. The note with it: RO30; Klebsiella RO 30; dilution method; read-out: MIC. In a few lines:
as §1

The subject of the next experiment is Enterobacter RO 154. Description: MIC, in vitro dilution method, Enterobacter RO 154 (Table III). It is filed as cell-based. Particulars: RO154; Enterobacter RO 154; dilution method; read-out: MIC. The procedure, abridged: as §1
The test system of another experiment is Pseudomonas RL 112. Description: MIC, in vitro dilution method, Pseudomonas RL 112 (Table III). It is filed as cell-based. The note with it: RL112. The procedure, abridged: as §1
The test system of another experiment is Escherichia coli 255. Put plainly: MIC on beta-lactamase producing strain Escherichia coli 255 (Table IV). Format: cell-based. Particulars: Escherichia coli 255, producing beta-lactamases; read-out: MIC. The procedure: (§2) To evaluate the stability of these products towards beta-lactamases, their MIC was determined on isogenic strains producing and not producing beta-lactamases.
(§3) The results are expressed in μg/ml in Table IV.

The subject of the next experiment is Escherichia coli 255/L.7. Description: MIC on strain not producing beta-lactamase, Escherichia coli 255/L.7 (Table IV). It is filed as cell-based. The procedure: as §2, §3
Experiment [4] relates to Serrtia liquefaciens SL/326 A. Put plainly: MIC on beta-lactamase producing strain Serratia liquefaciens SL/326 A (Table IV). It is filed as cell-based. The method, then: as §2, §3
For experiment [5], the system named is Serrtia liquefaciens SL 1326 S. Description: MIC on strain not producing beta-lactamase, Serratia liquefaciens SL 1326 S (Table IV). Format: cell-based. Particulars: SL1326S, not producing beta-lactamases. The procedure: as §2, §3
Experiment [6] has as its system Proteus vulgaris GN 76/C.1. Put plainly: MIC on beta-lactamase producing strain Proteus vulgaris GN 76/C.1 (Table IV). It is filed as cell-based. Particulars: GN76; Proteus vulgaris GN 76/C.1, producing beta-lactamases; read-out: MIC. The method, then: as §2, §3
In experiment [7] the test system is Escherichia coli SOL 90. Description: septicemic model of the mouse, Escherichia coli SOL 90 (Table V). Format: in vivo. Particulars: SOL90, sc, 96 h, mouse septicemia, sub-cutaneous, 1 to 5 hours after inoculation, 4 days observation, read-out: DE50 (the source's name). The procedure: The therapeutic effectiveness of the products was determined on the septicemic model of the mouse. the septicemia was initiated by the intraperitoneal innoculation of 0.5 ml of a suitable dilution of a suspension of the Escherichia coli SOL 90 strain. The products were administered in solution in a phosphate buffer pH 7.0 in a volume of 0.2 ml sub-cutaneously to batches of 10 mice, 1 to 5 hours after innoculation of the microorganism. After 4 days of observation in the course of which the mortality was noted, the 50% effective doses (DE 50) were calculated by the Muench and Reed method.

Experiment [8] relates to Klebsiella RO 30. Description: septicemic model of the mouse, Klebsiella RO 30 (Table V). It is filed as in vivo. Particulars: RO30, sc, 96 h, mouse septicemia, sub-cutaneous, 4 days observation, read-out: DE50 (the source's name).
For experiment [9], the system named is Proteus vulgaris GN 76/C.1/3. Put plainly: MIC on strain not producing beta-lactamase, Proteus vulgaris GN 76/C.1/3 (Table IV). It is filed as cell-based. Particulars: GN76, not producing beta-lactamases. The procedure: as §2, §3
Setting [10] is: Escherichia coli 255/L.7 *, not producing beta-lactamases, read-out: MIC.

In brackets after ≈: the same amount, converted by molar mass. Counter-ions that a name gives are not always drawn. Like-named read-outs stand apart in the source and are kept apart here. Some results are limits rather than exact numbers.

Turning to `CC(C)(O/N=C(\C(=O)NC1C(=O)N2C(C(=O)O)=C(COC(=O)CCN)C[S+]([O-])C12)c1csc(N)n1)C(=O)O` (centres unmarked) [41 730], the MIC (commonly the least concentration at which growth counts as inhibited) is 0.5 µg/mL (≈ 0.873 µM) in the experiment on Escherichia coli SOL 90 [1]; 0.25 µg/mL (≈ 0.437 µM) with Citrobacter RL 49; at most 0.12 µg/mL in experiment [2]; 1 µg/mL (≈ 1.75 µM) against Serratia RL 72; 0.25 µg/mL (≈ 0.437 µM) in the experiment with Klebsiella RO 30 [3]; 0.25 µg/mL (≈ 0.437 µM) in the experiment on Enterobacter RO 154. In addition, the MIC in the experiment with Pseudomonas RL 112 was 4 µg/mL (≈ 6.99 µM); in the experiment on Escherichia coli 255, 0.25 µg/mL (≈ 0.437 µM); in the experiment on Escherichia coli 255/L.7 (setting [10]) it was at most 0.12 µg/mL; in experiment [4] it was 0.5 µg/mL (≈ 0.873 µM); in [5], at most 0.12 µg/mL; in experiment [6] it was 0.25 µg/mL (≈ 0.437 µM). Besides, the ED50 is 1.4 mg/kg with Escherichia coli SOL 90 [7] and 0.79 mg/kg with Klebsiella RO 30 [8].

Turning to `CC(C)(O/N=C(\C(=O)NC1C(=O)N2C(C(=O)O)=C(COC(=O)C3CCNCC3)C[S+]([O-])C12)c1csc(N)n1)C(=O)O` (stereo not drawn) [41 862, 7-[2-(2-Amino 4-thiazolyl)2-(2-carboxy 2-propyloxyimino)acetamido]3-(4-piperidinyl)carbonyl oxymethyl 3-cepheme 4-carboxylic1β-S-oxide acid trifluoroacetate syn isomer], the MIC with Escherichia coli SOL 90 [1] is 0.25 µg/mL; with Citrobacter RL 49, 0.25 µg/mL; in [2], at most 0.12 µg/mL; against Serratia RL 72 it was 0.5 µg/mL; in the experiment on Klebsiella RO 30 [3], 0.25 µg/mL; with Enterobacter RO 154 it was 1 µg/mL. Also, the MIC with Pseudomonas RL 112 is 4 µg/mL; with Escherichia coli 255, at most 0.12 µg/mL; against Escherichia coli 255/L.7 (Escherichia coli, 255/L.7), 0.12 µg/mL; in experiment [4], at most 0.25 µg/mL; in experiment [5] it was at most 0.12 µg/mL; in [6], at most 0.12 µg/mL. The compound also returned an MIC in experiment [9] of at most 0.12 µg/mL. In addition, the ED50 came out at 0.13 mg/kg in the experiment on Escherichia coli SOL 90 [7] and 0.1 mg/kg in the experiment on Klebsiella RO 30 [8].

With `CC(C)(O/N=C(\C(=O)NC1C(=O)N2C(C(=O)O)=C(COC(=O)CCCCCN)C[S+]([O-])C12)c1csc(N)n1)C(=O)O` (centres unmarked) [41 855], the MIC in the experiment on Escherichia coli SOL 90 [1] is 0.25 µg/mL (≈ 0.407 µM); with Citrobacter RL 49 it was 1 µg/mL (≈ 1.63 µM); in experiment [2], at most 0.12 µg/mL; against Serratia RL 72, 0.5 µg/mL (≈ 0.813 µM); with Klebsiella RO 30 [3], 0.25 µg/mL (≈ 0.407 µM); in the experiment with Enterobacter RO 154 it was 2 µg/mL (≈ 3.25 µM). The minimal inhibitory concentration (MIC) with Pseudomonas RL 112 was 8 µg/mL (≈ 13 µM); in the experiment with Escherichia coli 255 it was at most 0.12 µg/mL; in the experiment with Escherichia coli 255/L.7 (setting [10]) it was at most 0.12 µg/mL; in experiment [4], 0.25 µg/mL (≈ 0.407 µM); in experiment [5] it was at most 0.12 µg/mL; in experiment [6], at most 0.12 µg/mL. In experiment [9], the MIC is at most 0.12 µg/mL. In addition, the results for the ED50 in the experiment with Escherichia coli SOL 90 [7] and with Klebsiella RO 30 [8] were 0.16 mg/kg and 0.17 mg/kg, respectively.
